Like-named read-outs stand apart in the source and are kept apart here.
Columns and labels:
[1] = test system: primary human neutrophils; assay: Generation of reactive oxygen species by fMLP-activated neutrophils (luminol-enhanced chemiluminescence); format: cell-based; details: Neutrophil
In short: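 Fresh primary human neutrophils (5×10^6 cells/mL) preincubated 30 min at 37° C with compound in Ca^2+-containing HBSS pH 7.4, then stimulated with 1 μM fMLP in presence of 1 μM luminol. Chemiluminescence integrated over 30 min; IC50 from non-linear regression versus 0.25% DMSO control.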

[2] = test system: TNF-α production in concanavalin-A stimulated primary human CD4+ T-lymphocytes; assay: TNF-α production in Con-A stimulated human CD4+ T-cells (ELISA); format: cell-based; details: T-lymphocyte, X marks this range
Protocol: Activated T-lymphocytes are known to produce TNF-α and may constitute a significant source of this important inflammatory mediator in localized regions of inflammation such as the rheumatoid synovium or psoriatic lesions. Supernatants from cona-stimulated primary human CD4+ T-cells that had been incubated in the presence or absence of a test compound were analyzed for TNF-α using an ELISA system. (Pharingen; recommended anti-TNF antibody set 18631-D and 18642-D). Substantial quantities of TNF-α were induced in vehicle treated T-cells stimulated with conA. […] This may be due to the differing sensitivity of monocyte/macrophages versus T-lymphocytes to elevations in intracellular cAMP with respect to regulatory pathways impacting TNF-α production.
(§1) Approximately 60 cc of whole human blood was collected into ACD anti-coagulant vacutainer tubes. 15 mL Ficoll Paque 1077 was aliquoted into 6 sterile 50 mL conical tubes. 10 mL of blood was slowly layered on top of the Ficoll Paque by holding the tube upright and resting the pipette tip at the inside edge of the tube and allowing the blood to slowly run down the side of the tube. Tubes were spun at 1700 rpm for 30 minutes at room temperature. The plasma layer above the leukocyte band was aspirated off and a pasteur pipette was used to lift off the leukocyte band and transfer it to a sterile 50 mL conical tube. Cells from each leukocyte gradiant tube were transferred to a separate 50 mL conical tube. Sterile PBS pH 7.4 was added to each 50 mL conical tube containing cells from leukocyte band to a volume of 50 mL. Tubes were spun at 1100 rpm for 10 minutes. Supernatant was aspirated off and the cells were resuspended in 50 mL PBS pH 7.4. Tubes were re-centrifuged at 1100 rpm for 10 minutes. Supernatant was aspirated off and the cells were resuspended in appropriate medium at a density of 5×10^7 cells/mL or 2×10^6 cells/mL.
(§2) CD 4+T-cell Preparation: Cells from Leukocyte preparation were resuspended in sterile PBS pH 7.4 supplemented with 2-6% Fetal Bovine Serum (FBS) at a density of 5×10^7 cells/mL. Cells were then ready for isolation.
(§3) 100 μL of antibody cocktail (Stem Cell Technologies, Catalogue No. 14062) was added for each mL of cells and mixed well. Cells+Ab cocktail was incubated on ice for 30 minutes. After 30 minute incubation, 60 μL of magnetic colloid was added for each mL of cells, and mixed well. Cells+Ab cocktail+magnetic colloid were incubated on ice for 30 minutes. After a final 30 minute incubation cells were ready for magnetic cell separation.
(§4) Sample was loaded into the top of a column. The stopcock was turned to allow the flow of media down through the column, and the media was collected into a collection tube. PBS supplemented with 2-6% FBS was added to the column until three column volumes had been collected (not including the volume of the start sample). Cells were washed, counted, and resuspended in RPMI 1640 with 10% FBS+2 mM L-glutamine at a density of 1×10^6 cells/mL.
(§5) CD4+ T-cells were isolated as described above. Cells were suspended in RPMI 1640 media (Stem Cell Technologies Inc.; Catalogue No. 36750) with 10% FBS+2 mM L-glutamine at a density of 1×10^6 cells/mL. Cells were maintained on ice as test compounds were prepared. Test compounds were prepared in a sterile 96-well assay plate at 50×the final desired test concentration, all wells contained an equal amount of dimethylsulfoxide vehicle. 500 μL of CD4^+ T-cells were added to each well of 24-well assay plate. 10 μL of each test compound working solution was added to the appropriate wells; two wells were left as stimulated and non-stimulated controls. 10 μL of concanavalin A (50×the final concentration) at 10 μg/mL was added to each well with the exception of the non-stimulated control wells. Cells were incubated at 37° C. for 48 hours. Conditioned media is then assessed by ELISA for the quantity of IL-2, […], TNFα and IL-10 present.

[3] = test system: IL-2 production in concanavalin A stimulated primary human CD4+ T-cells; assay: IL-2 production (Th1 profile) in concanavalin A stimulated primary human CD4+ T-cells; format: cell-based; details: for IC50: Homo sapiens, T-cell, 10 μg/mL Concanavalin A, 48 hours, X marks this range; for Th1 versus Th2 cytokine profile: conA stimulated CD4+ selected cells
Text: The assay on the primary human T-cells involves their activation by concanavalin A (conA); (Sigma, Catalogue No. C 5275), followed by ELISA detection for cytokines for either profile. In the case of Th1-profiles, IL-2 and INF-γ are used as benchmarks while IL-10 is the indicator for a Th2-profile. Biologically, these indicators are useful in that IL-2 is the major T-cell mitogen while IL-10 represents a powerful yet selective immunosuppressive agent.
as §1, §2, §3, §4, §5
Tables 5A, 5B and 5C represent a synopsis of data across individuals with respects to the potency of compounds of the invention in their ability to inhibit cytokines that are likely to promote or depress a Th1 or Th2 response. […]

[4] = test system: High Affinity Rolipram Binding Site of PDE4 in Mouse Brain; assay: Displacement of [3H]-rolipram from its high affinity binding site (HARBS); details: for PDE4:HARBS: ratio of IC50 for PDE4 catalytic activity to concentration displacing 50% of rolipram from HARBS
[5] = read-out: IC50 RANGE (μM) <1, ROS production, X marks this range
[6] = read-out: TNF-alpha IC50 RANGE (μM) 2.0-20
[7] = read-out: IL-2 IC50 RANGE (μM) 0.2-2.0
[8] = ROS production, X marks this range, read-out: IC50 RANGE (μM) 1-10
[9] = read-out: TNF-alpha IC50 RANGE (μM) <2
[10] = read-out: IL-2 IC50 RANGE (μM) 0.02-0.2

Row | SMILES | IC50 [1, 5] | IC50 [2, 6] | IC50 [3, 7] | PDE4:HARBS [4] | IC50 [1, 8] | IC50 [2, 9] | further results
1 | COc1cc(CC2C[C@@H](c3ccc(OC)c(OC4CCCC4)c3)COC2=O)ccc1O (stereo partly shown) [Compound 43] | < 1 µM | 2 to 20 µM | 0.2 to 2 µM | >1 | – | – | ratio of IC50's for PDE4catalytic to PDE4HARBS [4]: 1.04
2 | COc1ccc([C@H]2CNC(=O)C(Cc3ccc(OCc4ccccc4)c(OC)c3)C2)cc1OC (stereo partly shown) [Compound 54] | – | – | – | >1 | 1 to 10 µM | < 2 µM | IC50 [3, 10]: 0.02 to 0.2 µM; Th1 versus Th2 cytokine profile [3]: selective inhibition of a Th1 profile
3 | COc1cc(CC2C[C@@H](c3ccc(OC)c(OC4CCCC4)c3)CNC2=O)ccc1O (stereo partly shown) [Compound 62] | – | – | 0.2 to 2 µM | >1 | – | < 2 µM | IC50 ([1]; ROS production, X marks this range, read-out: IC50 RANGE (μM) 10-100): 10 to 100 µM
4 | COc1ccc(C2CNC(=O)C2)cc1OC1CCCC1 (stereo not shown) [Rolipram, reference compound] | – | – | – | – | – | < 2 µM | IC50 ([3]; read-out: IL-2 IC50 RANGE (μM) 2.0-20): 2 to 20 µM
5 | COc1cc(C[C@@H]2CC(c3ccc(OC)c(OC)c3)COC2=O)ccc1O (mixture of isomers) [Compound 12] | < 1 µM | – | – | – | – | – | –
6 | COc1cc(CC2C[C@@H](c3ccc(OC)c(OC)c3)CNC2=O)ccc1O (stereo partly shown) [Compound 55] | – | 2 to 20 µM | 0.2 to 2 µM | >1 | 1 to 10 µM | – | –
7 | COc1cc(C[C@@H]2C[C@@H](c3ccc(OC)c(OC)c3)COC2=O)ccc1O [Compound 30] | – | 2 to 20 µM | – | <1 | 1 to 10 µM | – | IC50 [3, 10]: 0.02 to 0.2 µM; Th1 versus Th2 cytokine profile [3]: selective inhibition of a Th1 profile
8 | COc1ccc([C@@H]2CCC(=O)OC2)cc1OC1CCCC1 [Compound 41] | < 1 µM | – | – | >1 | – | – | –

Reference: US20030186943A1, “Substituted gamma-phenyl-delta-lactams and uses related thereto” (Inflazyme Pharmaceuticals Ltd., priority 1998, published 2003)
